One assay concerns A549. In words: Cell-based assay, anti-proliferative activity (Cell Counting Kit-8, 72 hours). Particulars: Homo sapiens, read-out: IC50 (μM) A549. In short, it runs like this: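 Seed cells in 96-well format; add inhibitors; measure growth by CCK-8 at end of exposure; derive IC50.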
On the technique in general: Formazan colour is commonly taken as a measure of viable cells.

A further assay has as its system CCD-18Co. The assay is described as above. The following applies: Homo sapiens, read-out: IC50 (μM) CCD-18Co. In short, it runs like this: (§1)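 Seed cells in 96-well plates; add serially diluted inhibitor (1.5625 to 100 micro-M plus vehicle); incubate 72 hours; quantify viable growth by CCK-8 and calculate IC50.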
The subject of a further assay is HCT-116. The assay is described as above. The following applies: Homo sapiens, read-out: IC50 (μM) HCT-116. In short, it runs like this:
as §1

The subject of the next assay is HFL1. Described as above. The following applies: Homo sapiens, read-out: IC50 (μM) HFL1. In short, it runs like this: as §1
For a further assay, the system named is PC14. The assay is described as above. Particulars: Homo sapiens, read-out: IC50 (μM) PC14. In short, it runs like this:
as §1

The target of a further assay is SUV39H2 (Homo sapiens (Human), UniProt Q9H5I1). Particulars: read-out: IC50 (μM) Suv 39H2 assay.
Setting [1] is: A549 cells, Cell Counting Kit-8, 72 hours.
Where [2] appears, read: CCD-18Co cells, Cell Counting Kit-8, 72 hours.
Where [3] appears, read: HCT-116 cells, Cell Counting Kit-8, 72 hours.
The mark [4] stands for this setting: HFL1 cells, Cell Counting Kit-8, 72 hours.
Where [5] appears, read: PC-14, PC14 cells, Cell Counting Kit-8, 72 hours.
The mark [6] stands for this setting: A549 cells, 72 hours, Cell Counting Kit-8.
[7] abbreviates: CCD-18Co cells, 72 hours, Cell Counting Kit-8.
Setting [8] is: HCT-116 cells, 72 hours, Cell Counting Kit-8.
Setting [9] is: HFL1 cells, 72 hours, Cell Counting Kit-8.
The mark [10] stands for this setting: PC-14, PC14 cells, 72 hours, Cell Counting Kit-8.

This is an account of results in patent US10508109B2 (priority 2015, dated 2019).

Structures can show the parent of a compound that is named as a salt. Where two headings read alike, the source gives them in different places.

Chain of SUV39H2 (Q9H5I1 whole entry): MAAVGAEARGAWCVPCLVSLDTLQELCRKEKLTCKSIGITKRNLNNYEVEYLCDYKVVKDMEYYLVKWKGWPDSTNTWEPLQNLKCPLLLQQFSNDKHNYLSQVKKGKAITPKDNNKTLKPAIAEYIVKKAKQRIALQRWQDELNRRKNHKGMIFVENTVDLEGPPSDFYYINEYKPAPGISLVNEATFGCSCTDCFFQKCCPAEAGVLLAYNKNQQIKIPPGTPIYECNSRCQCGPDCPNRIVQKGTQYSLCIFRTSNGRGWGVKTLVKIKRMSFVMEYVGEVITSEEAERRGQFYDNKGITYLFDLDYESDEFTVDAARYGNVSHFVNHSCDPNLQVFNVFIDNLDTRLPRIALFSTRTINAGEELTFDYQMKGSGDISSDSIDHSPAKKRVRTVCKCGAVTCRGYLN

Take `CCS(=O)(=O)NC1CCN(c2ccn3cc(-c4cc(Cl)c(OC)cc4OC)nc3c2)CC1` [Example 173, N-{1-[2-(5-chloro-2,4-dimethoxyphenyl)imidazo[1,2-a]pyridin-7-yl]piperidin-4-yl}ethanesulfonamide]: the IC50 in the assay on A549 (setting [1]) is 1.5 µM; in the assay with CCD-18Co (setting [2]), 0.99 µM; in the assay on HCT-116 (setting [3]), 1.9 µM; in the assay on HFL1 (setting [4]) it was 0.53 µM; in the assay on PC14 (setting [5]), 1.6 µM; at SUV39H2 (enzyme assay), 0.00961 µM.
With `CNc1ccn2cc(-c3cc(Cl)c(OC)cc3OC)nc2c1` [Example 6, 2-(5-chloro-2,4-dimethoxyphenyl)-N-methylimidazo[1,2-a]pyridin-7-amine hydrobromide], the IC50 with A549 (A549, 72 h) turned out to be 2.2 µM; with CCD-18Co (CCD-18Co, 72 h), 2.7 µM; with HCT-116 (HCT-116, 72 h) it was 1.7 µM; with HFL1 (HFL1, 72 h), 1 µM; in the assay with PC14 (PC-14, 72 h), 1.4 µM; on SUV39H2 (enzyme assay), 0.00943 µM.
For the compound `COc1cc(OC)c(-c2cn3ccc(N4CCCN(P(=O)(OC)OC)CC4)cc3n2)cc1Cl` [Example 207, dimethyl (4-(2-(5-chloro-2,4-dimethoxyphenyl)imidazo[1,2-a]pyridin-7-yl)-1,4-diazepan-1-yl)phosphonate], the IC50 with A549 (A549, 72 h) was 10 µM; with CCD-18Co (CCD-18Co, 72 h), 10 µM; in the assay on HCT-116 (HCT-116, 72 h), 10 µM; in the assay on HFL1 (HFL1, 72 h), 10 µM; in the assay on PC14 (PC-14, 72 h), 10 µM; on SUV39H2 (enzyme assay), 0.0113 µM.
On to `COc1cc(OC)c(-c2cn3ccc(N4CCN(S(=O)(=O)C(C)C)CC4)cc3n2)cc1Cl` [Example 178, 2-(5-chloro-2,4-dimethoxyphenyl)-7-[4-(isopropylsulfonyl)piperazin-1-yl]imidazo[1,2-a]pyridine], for which the concentration for half-maximal inhibition (IC50) with A549 (setting [1]) came out at 1 µM; with CCD-18Co (setting [2]), 2.1 µM; in the assay on HCT-116 (setting [3]) it was 1.5 µM; with HFL1 (setting [4]), 1.7 µM; with PC14 (setting [5]), 0.74 µM; on SUV39H2 (enzyme assay), 0.0143 µM.
On to `COc1cc(OC)c(-c2cn3ccc(N4CCNCC4)nc3n2)cc1Cl` [Example 153, 2-(5-chloro-2,4-dimethoxyphenyl)-7-(piperazin-1-yl)imidazo[1,2-a]-pyrimidine], for which the IC50 is 10 µM in the assay with A549 (setting [1]); 11 µM in the assay on CCD-18Co (setting [2]); 8.6 µM in the assay with HCT-116 (setting [3]); 5.3 µM in the assay with HFL1 (setting [4]); 4.1 µM with PC14 (setting [5]); 0.0526 µM on SUV39H2 (enzyme assay).
Take `COc1cc(C)c(Cl)cc1-c1cn2ccc(N3CCNCC3)cc2n1` [Example 228, 2-(5-chloro-2-methoxy-4-methylphenyl)-7-(piperazin-1-yl)imidazo[1,2-a]pyridine hydrochloride]: the IC50 in the assay on A549 (A549, 72 h) amounted to 2.8 µM; with CCD-18Co (CCD-18Co, 72 h), 2.6 µM; in the assay on HCT-116 (HCT-116, 72 h), 2 µM; with HFL1 (HFL1, 72 h) it was 1.6 µM; with PC14 (PC-14, 72 h) it was 2.3 µM; on SUV39H2, 0.033 µM.
On to `COc1cc(OC)c(-c2cn3ccc(N4CCN(Cc5ccncc5)CC4)cc3n2)cc1Cl` [Example 292, 2-(5-chloro-2,4-dimethoxyphenyl)-7-(4-(pyridin-4-ylmethyl)piperazin-1-yl)imidazo[1,2-a]pyridine], for which the IC50 in the assay with A549 (setting [6]) is 1.2 µM; with CCD-18Co (setting [7]), 1.3 µM; in the assay with HCT-116 (setting [8]), 1.3 µM; with HFL1 (setting [9]) it was 1.2 µM; with PC14 (setting [10]) it was 0.68 µM; on SUV39H2 (enzyme assay), 0.00637 µM.
Regarding `COc1cc(OC)c(-c2cn3ccc(N4CCN(P(=O)(OC)OC)CC4)nc3n2)cc1Cl` [Example 218, dimethyl (4-(2-(5-chloro-2,4-dimethoxyphenyl)imidazo[1,2-a]pyrimidin-7-yl)piperazin-1-yl)phosphonate], the IC50 is 6.5 µM in the assay on A549 (A549, 72 h); 10 µM in the assay on CCD-18Co (CCD-18Co, 72 h); 5.6 µM in the assay with HCT-116 (HCT-116, 72 h); 10 µM in the assay on HFL1 (HFL1, 72 h); 3.4 µM in the assay with PC14 (PC-14, 72 h); 0.0111 µM at SUV39H2 (enzyme assay).
As to `COc1cc(OCCCN(C)C)c(-c2cn3ccc(N4CCNCC4)nc3n2)cc1Cl` [Example 186, 3-(4-chloro-5-methoxy-2-(7-(piperazin-1-yl)imidazo[1,2-a]pyrimidin-2-yl)phenoxy)-N,N-dimethylpropan-1-amine], the IC50 in the assay with A549 (setting [1]) is 22 µM; in the assay on CCD-18Co (setting [2]), 35 µM; in the assay on HCT-116 (setting [3]), 17 µM; in the assay with HFL1 (setting [4]), 7.3 µM; with PC14 (setting [5]), 12 µM; at SUV39H2 (enzyme assay) it was 0.0619 µM.
With `COc1cc(OC)c(-c2cn3ccc(N4CC[C@H](N)C4)cc3n2)cc1Cl` [Example 47, (S)-1-(2-(5-Chloro-2,4-dimethoxyphenyl)imidazo[1,2-a]pyridin-7-yl)pyrrolidin-3-amine hydrochloride], the IC50 in the assay on A549 (A549, 72 h) came out at 3 µM; with CCD-18Co (CCD-18Co, 72 h), 3.5 µM; in the assay with HCT-116 (HCT-116, 72 h) it was 3.4 µM; with HFL1 (HFL1, 72 h), 2 µM; in the assay on PC14 (PC-14, 72 h) it was 4.5 µM; on SUV39H2 it was 0.00829 µM.
With `COc1cc(OC)c(-c2cn3cc(NCCN)c(N4CCN(C(=O)OC(C)(C)C)CC4)nc3n2)cc1Cl` [Example 221, tert-butyl 4-(6-((2-aminoethyl)amino)-2-(5-chloro-2,4-dimethoxyphenyl)imidazo[1,2-a]pyrimidin-7-yl)piperazine-1-carboxylate], the IC50 was determined as 10 µM in the assay on A549 (setting [6]); 5.6 µM with CCD-18Co (setting [7]); 5.4 µM in the assay on HCT-116 (setting [8]); 4.9 µM in the assay on HFL1 (setting [9]); 9.5 µM with PC14 (setting [10]); 0.0118 µM on SUV39H2 (enzyme assay).
Regarding `COc1cc(OCCCN(C)C)c(-c2cn3ccc(N4CCCN(C(=O)OC(C)(C)C)CC4)cc3n2)cc1Cl` [Example 211, tert-butyl 4-(2-{5-chloro-2-[3-(dimethylamino)propoxy]-4-methoxyphenyl}imidazo[1,2-a]pyridin-7-yl)-1,4-diazepane-1-carboxylate], the IC50 in the assay on A549 (setting [1]) is 2.9 µM; with CCD-18Co (setting [2]), 1.4 µM; with HCT-116 (setting [3]), 2.4 µM; in the assay with HFL1 (setting [4]) it was 1.4 µM; with PC14 (setting [5]) it was 0.8 µM; on SUV39H2 (enzyme assay), 0.0563 µM.
Consider `COc1cc(OC)c(-c2cn3ccc(N4CCC(CN(C)C)CC4)cc3n2)cc1Cl` [Example 97, 1-(1-(2-(5-Chloro-2,4-dimethoxyphenyl)imidazo[1,2-a]pyridin-7-yl)piperidin-4-yl)-N,N-dimethylmethanamine], for which the IC50 worked out at 3.2 µM in the assay on A549 (setting [1]); 6.5 µM with CCD-18Co (setting [2]); 2.8 µM in the assay with HCT-116 (setting [3]); 2.4 µM with HFL1 (setting [4]); 2.3 µM in the assay with PC14 (setting [5]); 0.00768 µM at SUV39H2 (enzyme assay).
Consider `COc1cc(OC)c(-c2cn3ccc(N4CCOCC4)cc3n2)cc1Cl` [Example 12, 4-(2-(5-chloro-2,4-dimethoxyphenyl)imidazo[1,2-a]pyridin-7-yl)morpholine hydrobromide], for which the IC50 in the assay with A549 (setting [1]) was 6.9 µM; in the assay with CCD-18Co (setting [2]), 9 µM; in the assay on HCT-116 (setting [3]), 5.1 µM; with HFL1 (setting [4]) it was 6.8 µM; with PC14 (setting [5]), 2.9 µM; at SUV39H2 (enzyme assay), 0.012 µM.
`COc1cc(OC)c(-c2cn3ccc(N4CCN(CCF)CC4)cc3n2)cc1Cl` [Example 104, 2-(5-chloro-2,4-dimethoxyphenyl)-7-(4-(2-fluoroethyl)piperazin-1-yl)-imidazo[1,2-a]pyridine]: the half-maximal inhibitory concentration (IC50) is 6.7 µM in the assay on A549 (setting [1]); 8.9 µM in the assay with CCD-18Co (setting [2]); 8.3 µM in the assay on HCT-116 (setting [3]); 4.2 µM in the assay on HFL1 (setting [4]); 4.7 µM in the assay with PC14 (setting [5]); 0.00666 µM on SUV39H2 (enzyme assay).
For the compound `COc1cc(OC)c(-c2cn3ccc(N4CCN(S(=O)(=O)C5CCCC5)CC4)nc3n2)cc1Cl` [Example 204, 2-(5-chloro-2,4-dimethoxyphenyl)-7-[4-(cyclopentylsulfonyl)-piperazin-1-yl]imidazo[1,2-a]pyrimidine], the IC50 in the assay with A549 (setting [1]) is 0.75 µM; in the assay with CCD-18Co (setting [2]), 4.5 µM; with HCT-116 (setting [3]), 1 µM; in the assay on HFL1 (setting [4]), 1.7 µM; with PC14 (setting [5]), 0.6 µM; on SUV39H2 (enzyme assay) it was 0.0448 µM.
Turning to `COc1cc(OC)c(-c2cn3ccc(N4CCN(CCC(N)=O)CC4)cc3n2)cc1Cl` [Example 137, 3-(4-(2-(5-chloro-2,4-dimethoxyphenyl)imidazo[1,2-a]pyridin-7-yl)piperazin-1-yl)propanamide], the IC50 with A549 (setting [1]) came to 24 µM; in the assay with CCD-18Co (setting [2]), 14 µM; with HCT-116 (setting [3]), 14 µM; with HFL1 (setting [4]) it was 13 µM; in the assay on PC14 (setting [5]), 12 µM; at SUV39H2 (enzyme assay), 0.00454 µM.
Regarding `COc1cc(OCCCN(C)C)c(-c2cn3ccc(N4CCCC4)cc3n2)cc1Cl` [Example 80, 3-{4-chloro-5-methoxy-2-[7-(pyrrolidin-1-yl)imidazo[1,2-a]pyridin-2-yl]-phenoxy}-N,N-dimethylpropan-1-amine], the IC50 with A549 (setting [1]) is 1.6 µM; with CCD-18Co (setting [2]), 1.8 µM; with HCT-116 (setting [3]) it was 1.1 µM; in the assay with HFL1 (setting [4]) it was 0.85 µM; with PC14 (setting [5]) it was 1.7 µM; on SUV39H2 (enzyme assay), 0.00531 µM.

A word on the IC50: it is the concentration that inhibits the measured activity by half.
